Assay results taken from ChEMBL document CHEMBL1144971, “Azido-containing aryl beta-diketo acid HIV-1 integrase inhibitors” (Bioorg Med Chem Lett, 2003).

molecular target: T1, Human immunodeficiency virus type 1 integrase (Human immunodeficiency virus 1, UniProt Q7ZJM1); assay: (§1) Inhibitory concentration against Recombinant HIV-1 integrase (3'processing)
T1 sequence (Q7ZJM1 whole entry): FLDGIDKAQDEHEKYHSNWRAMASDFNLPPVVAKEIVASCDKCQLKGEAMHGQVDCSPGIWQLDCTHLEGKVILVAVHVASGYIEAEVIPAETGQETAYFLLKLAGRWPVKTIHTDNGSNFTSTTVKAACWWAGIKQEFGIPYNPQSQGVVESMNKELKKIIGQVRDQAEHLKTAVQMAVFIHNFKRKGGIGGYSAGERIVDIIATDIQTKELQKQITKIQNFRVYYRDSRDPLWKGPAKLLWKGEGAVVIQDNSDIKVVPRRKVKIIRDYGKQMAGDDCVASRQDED

| Compound | IC50 [µM] |
| --- | --- |
| O=C(O)C(=O)CC(=O)c1cccc(OCc2ccccc2)c1 | 100 |

molecular target: T1, Human immunodeficiency virus type 1 integrase; assay: (§2) Inhibitory concentration against Recombinant HIV-1 integrase (Standard transfer reaction)

| IC50 [µM] | Compound |
| --- | --- |
| 1.5 | N#CCCc1cccc(C(=O)CC(=O)C(=O)O)c1 |
| 8.5 | COc1ccc(C(=O)CC(=O)C(=O)O)cc1CN=[N+]=[N-] |
| 0.26 | [N-]=[N+]=NCc1ccc(C(=O)CC(=O)C(=O)O)cc1CN=[N+]=[N-] |
| 2.8 | [N-]=[N+]=NCc1cc(CN=[N+]=[N-])cc(C(=O)CC(=O)C(=O)O)c1 |
| 25 | CC(C)Oc1ccc(CN=[N+]=[N-])cc1C(=O)CC(=O)C(=O)O |
| 6.1 | [N-]=[N+]=NCc1ccc(C(=O)CC(=O)C(=O)O)cc1 |

molecular target: T1, Human immunodeficiency virus type 1 integrase; assay: as §1

| Compound | IC50 [µM] |
| --- | --- |
| O=C(O)C(=O)CC(=O)c1cc(OCc2ccccc2)cc(OCc2ccccc2)c1 | > 100 |
| [N-]=[N+]=NC1CC(N=[N+]=[N-])c2cc(C(=O)CC(=O)C(=O)O)ccc21 (stereo not given) | > 100 |
| [N-]=[N+]=NC1CCC(N=[N+]=[N-])c2cc(C(=O)CC(=O)C(=O)O)ccc21 (stereo not given) | 70 |
| O=C(O)C(=O)CC(=O)c1cccc(OCc2ccccc2)c1 | 85 |

Next, values leading:

| IC50 [µM] | Compound |
| --- | --- |
| > 100 | N#CCCc1cccc(C(=O)CC(=O)C(=O)O)c1 |
| > 100 | COc1ccc(C(=O)CC(=O)C(=O)O)cc1CN=[N+]=[N-] |
| > 100 | [N-]=[N+]=NCc1cccc(C(=O)CC(=O)C(=O)O)c1 |
| > 100 | [N-]=[N+]=NCc1ccc(C(=O)CC(=O)C(=O)O)cc1CN=[N+]=[N-] |
| > 100 | [N-]=[N+]=NCc1cc(CN=[N+]=[N-])cc(C(=O)CC(=O)C(=O)O)c1 |
| > 100 | CC(C)Oc1ccc(CN=[N+]=[N-])cc1C(=O)CC(=O)C(=O)O |
| > 100 | [N-]=[N+]=NCc1ccc(C(=O)CC(=O)C(=O)O)cc1 |

molecular target: T1, Human immunodeficiency virus type 1 integrase; assay: as §2

| Compound | IC50 [µM] |
| --- | --- |
| O=C(O)C(=O)CC(=O)c1cc(OCc2ccccc2)cc(OCc2ccccc2)c1 | 0.48 |
| [N-]=[N+]=NC1CC(N=[N+]=[N-])c2cc(C(=O)CC(=O)C(=O)O)ccc21 (stereo not given) | 0.36 |
| [N-]=[N+]=NC1CCC(N=[N+]=[N-])c2cc(C(=O)CC(=O)C(=O)O)ccc21 (stereo not given) | 0.32 |
| O=C(O)C(=O)CC(=O)c1cccc(OCc2ccccc2)c1 | 0.35 |

Continued, values first:

| IC50 [µM] | Compound |
| --- | --- |
| 1.8 | N#CCCc1cccc(C(=O)CC(=O)C(=O)O)c1 |
| 9 | COc1ccc(C(=O)CC(=O)C(=O)O)cc1CN=[N+]=[N-] |
| 1.53 | [N-]=[N+]=NCc1cccc(C(=O)CC(=O)C(=O)O)c1 |
| 0.15 | [N-]=[N+]=NCc1ccc(C(=O)CC(=O)C(=O)O)cc1CN=[N+]=[N-] |
| 2 | [N-]=[N+]=NCc1cc(CN=[N+]=[N-])cc(C(=O)CC(=O)C(=O)O)c1 |
| 23 | CC(C)Oc1ccc(CN=[N+]=[N-])cc1C(=O)CC(=O)C(=O)O |
| 7.1 | [N-]=[N+]=NCc1ccc(C(=O)CC(=O)C(=O)O)cc1 |

system: MT4; assay: Cytotoxic concentration was measured against MT-4 human T-lymphoid cells; type: functional

| Compound | CC50 [µM] |
| --- | --- |
| O=C(O)C(=O)CC(=O)c1cc(OCc2ccccc2)cc(OCc2ccccc2)c1 | > 50 |
| [N-]=[N+]=NCc1cccc(C(=O)CC(=O)C(=O)O)c1 | > 50 |
| [N-]=[N+]=NCc1ccc(C(=O)CC(=O)C(=O)O)cc1CN=[N+]=[N-] | > 50 |
| [N-]=[N+]=NCc1cc(CN=[N+]=[N-])cc(C(=O)CC(=O)C(=O)O)c1 | > 50 |

system: MT4; assay: Antiviral potency was measured in HIV-1IIIb infected MT-4 human T-lymphoid cells; type: functional, cell-based

| Compound | IC50 [µM] |
| --- | --- |
| N#CCCc1cccc(C(=O)CC(=O)C(=O)O)c1 | > 25 |
| COc1ccc(C(=O)CC(=O)C(=O)O)cc1CN=[N+]=[N-] | > 25 |
| O=C(O)C(=O)CC(=O)c1cc(OCc2ccccc2)cc(OCc2ccccc2)c1 | 1.9 |
| [N-]=[N+]=NC1CC(N=[N+]=[N-])c2cc(C(=O)CC(=O)C(=O)O)ccc21 (stereo not given) | > 25 |
| [N-]=[N+]=NCc1cccc(C(=O)CC(=O)C(=O)O)c1 | 2.1 |
| [N-]=[N+]=NCc1ccc(C(=O)CC(=O)C(=O)O)cc1CN=[N+]=[N-] | 14.3 |
| [N-]=[N+]=NCc1cc(CN=[N+]=[N-])cc(C(=O)CC(=O)C(=O)O)c1 | 5 |
| CC(C)Oc1ccc(CN=[N+]=[N-])cc1C(=O)CC(=O)C(=O)O | 5.9 |
| [N-]=[N+]=NCc1ccc(C(=O)CC(=O)C(=O)O)cc1 | > 25 |
| COc1ccc(CN=[N+]=[N-])cc1C(=O)CC(=O)C(=O)O | 13.5 |
| [N-]=[N+]=NC1CCC(N=[N+]=[N-])c2cc(C(=O)CC(=O)C(=O)O)ccc21 (stereo not given) | 15.6 |
| O=C(O)C(=O)CC(=O)c1cccc(OCc2ccccc2)c1 | 0.6 |
